The record followed here is patent publication US9249145B2, “Heterocyclic derivatives of pyrazol-4-yl-pyrrolo[2,3-d]pyrimidines as janus kinase inhibitors” (Incyte Holdings Corporation, priority 2009, dated 2016).

Molecules are shown by their SMILES. Structures can show the parent of a compound that is named as a salt. Where two headings read alike, the source gives them in different places.

For one assay, the target named is T1, Jak2 (a.a. 828-1132) (Homo sapiens, UniProt O60674).
T1 construct: Jak2 (a.a. 828-1132); His tag (N); made in house; host or cells: insect cells (baculovirus)
T1 sequence (O60674 828-1132): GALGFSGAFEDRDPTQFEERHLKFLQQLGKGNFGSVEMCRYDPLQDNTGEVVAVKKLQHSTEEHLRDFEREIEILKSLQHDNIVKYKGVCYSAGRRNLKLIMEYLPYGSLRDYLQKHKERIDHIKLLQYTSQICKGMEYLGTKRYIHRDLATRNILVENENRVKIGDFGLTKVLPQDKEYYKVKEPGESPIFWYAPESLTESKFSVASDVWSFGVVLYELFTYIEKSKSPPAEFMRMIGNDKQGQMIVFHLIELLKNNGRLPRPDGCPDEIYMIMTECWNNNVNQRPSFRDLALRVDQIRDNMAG
The assay can be described thus: In vitro JAK kinase assay (HTRF, phosphorylation of biotinylated peptide), JAK2. The format is biochemical. As to conditions: 1 mM ATP, read-out: JAK2 IC50 (nM) @ 1 mM ATP. The method, boiled down: (§1)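 IC50 from HTRF detection (Eu-Py20 antibody, SA-APC, 40 min) after EDTA quench. Reactions ran 1 h at room temperature with 500 nM biotinylated peptide in Tris pH 7.8 buffer with NaCl, DTT, BSA; ATP 90 μM for JAK1, 30 μM for JAK2 (Km), or 1 mM. Enzymes: His-tagged catalytic domains from insect cells.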

The target of assay [1] is T2, human JAK1 (a.a. 837-1142) (Homo sapiens, UniProt P23458).
T2 construct: The catalytic domains of human JAK1 (a.a. 837-1142); His tag (N); made in house; host or cells: insect cells (baculovirus)
T2 sequence (P23458 849-1154): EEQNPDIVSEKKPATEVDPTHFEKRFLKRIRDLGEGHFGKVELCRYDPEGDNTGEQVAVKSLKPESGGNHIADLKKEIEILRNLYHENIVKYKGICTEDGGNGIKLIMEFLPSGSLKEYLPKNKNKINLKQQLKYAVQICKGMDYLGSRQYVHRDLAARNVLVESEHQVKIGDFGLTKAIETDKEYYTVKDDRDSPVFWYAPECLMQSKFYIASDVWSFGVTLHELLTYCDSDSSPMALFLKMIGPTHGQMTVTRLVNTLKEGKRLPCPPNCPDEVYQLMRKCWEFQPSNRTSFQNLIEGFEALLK
Nature of the assay: In vitro JAK kinase assay (HTRF, phosphorylation of biotinylated peptide), JAK1. The format is biochemical. The note with it: 1 mM ATP, read-out: JAK1 IC50 (nM) @ 1 mM ATP. The method, boiled down:
as §1

On to `N#CCC(CN1CCN(C(=O)Nc2ccc(F)cc2F)CC1)n1cc(-c2ncnc3[nH]ccc23)cn1` (centres unmarked) [Example 72, 4-(2-(4-(7H-pyrrolo[2,3-d]pyrimidin-4-yl)-1H-pyrazol-1-yl)-3-cyanopropyl)-N-(2,4-difluorophenyl)piperazine-1-carboxamide], for which the IC50 on Jak2 (a.a. 828-1132) (Examples 12-91) fell in the range of 50 to 100 nM; in assay [1] (Examples 12-91), 10 to 50 nM.

With `N#CCC(CN1CCN(C(=O)Nc2cccc(C(F)(F)F)c2F)CC1)n1cc(-c2ncnc3[nH]ccc23)cn1` (centres unmarked) [Example 73, 4-(2-(4-(7H-pyrrolo[2,3-d]pyrimidin-4-yl)-1H-pyrazol-1-yl)-3-cyanopropyl)-N-(2-fluoro-3-(trifluoromethyl)phenyl)piperazine-1-carboxamide], the results for the IC50 (on Jak2 (a.a. 828-1132) (Examples 12-91); in assay [1] (Examples 12-91)) were over 100 nM and 10 to 50 nM, respectively.

For the compound `N#CCC(CN1CCN(C(=O)Nc2ccccc2OC(F)F)CC1)n1cc(-c2ncnc3[nH]ccc23)cn1` (centres unmarked) [Example 74, 4-(2-(4-(7H-pyrrolo[2,3-d]pyrimidin-4-yl)-1H-pyrazol-1-yl)-3-cyanopropyl)-N-(2-(difluoromethoxy)phenyl)piperazine-1-carboxamide], the IC50 on Jak2 (a.a. 828-1132) (Examples 12-91) was 50 to 100 nM; in assay [1] (Examples 12-91) it was 10 to 50 nM.

With `N#CCC(CN1CCN(C(=O)Nc2ccccc2OC(F)(F)F)CC1)n1cc(-c2ncnc3[nH]ccc23)cn1` (centres unmarked) [Example 75], the IC50 on Jak2 (a.a. 828-1132) (Examples 12-91) is 50 to 100 nM; in assay [1] (Examples 12-91) it was 10 to 50 nM.

Take `N#CCC(CN1CCN(C(=O)Nc2ccccc2C(F)(F)F)CC1)n1cc(-c2ncnc3[nH]ccc23)cn1` (centres unmarked) [Example 76, 4-(2-(4-(7H-pyrrolo[2,3-d]pyrimidin-4-yl)-1H-pyrazol-1-yl)-3-cyanopropyl)-N-(2-(trifluoromethyl)phenyl)piperazine-1-carboxamide]: the values for the IC50 (at Jak2 (a.a. 828-1132) (Examples 12-91); in assay [1] (Examples 12-91)) were over 100 nM and 10 to 50 nM, respectively.

In the case of `N#CCC(CN1CCN(C(=O)c2ccc(C(F)(F)F)cc2F)CC1)n1ccc(-c2ncnc3[nH]ccc23)c1` (centres unmarked) [Example 78, 3-(3-(7H-pyrrolo[2,3-d]pyrimidin-4-yl)-1H-pyrrol-1-yl)-4-(4-(2-fluoro-4-(trifluoromethyl)benzoyl)piperazin-1-yl)butanenitrile], the IC50 on Jak2 (a.a. 828-1132) (Examples 12-91) is 10 to 50 nM; in assay [1] (Examples 12-91), under 10 nM.

`N#CCC(CN1CCN(C(=O)c2c(F)cc(C#N)cc2F)CC1)n1ccc(-c2ncnc3[nH]ccc23)c1` (centres unmarked) [Example 79, 4-(4-(2-(3-(7H-pyrrolo[2,3-d]pyrimidin-4-yl)-1H-pyrrol-1-yl)-3-cyanopropyl)piperazine-1-carbonyl)-3,5-difluorobenzonitrile trifluoroacetate salt]: the values for the IC50 (at Jak2 (a.a. 828-1132) (Examples 12-91); in assay [1] (Examples 12-91)) were 50 to 100 nM and under 10 nM, respectively.

With `N#CCC(CN1CCN(C(=O)c2ncc(F)cc2F)CC1)n1ccc(-c2ncnc3[nH]ccc23)c1` (centres unmarked) [Example 80, 3-(3-(7H-pyrrolo[2,3-d]pyrimidin-4-yl)-1H-pyrrol-1-yl)-4-(4-(3,5-difluoropicolinoyl)piperazin-1-yl)butanenitrile], the IC50 on Jak2 (a.a. 828-1132) (Examples 12-91) was 10 to 50 nM; in assay [1] (Examples 12-91) it was under 10 nM.

Turning to `N#CCC(CN1CCN(C(=O)c2cc(F)cc(F)c2)CC1)n1ccc(-c2ncnc3[nH]ccc23)c1` (centres unmarked) [Example 81, 3-(3-(7H-pyrrolo[2,3-d]pyrimidin-4-yl)-1H-pyrrol-1-yl)-4-(4-(3,5-difluorobenzoyl)piperazin-1-yl)butanenitrile], the IC50 was 50 to 100 nM on Jak2 (a.a. 828-1132) (Examples 12-91) and under 10 nM in assay [1] (Examples 12-91).

`COc1ccc(C(=O)N2CCN(CC(CC#N)n3ccc(-c4ncnc5[nH]ccc45)c3)CC2)cc1F` (centres unmarked) [Example 82, 3-(3-(7H-pyrrolo[2,3-d]pyrimidin-4-yl)-1H-pyrrol-1-yl)-4-(4-(3-fluoro-4-methoxybenzoyl)piperazin-1-yl)butanenitrile]: the IC50 on Jak2 (a.a. 828-1132) (Examples 12-91) is 10 to 50 nM; in assay [1] (Examples 12-91), under 10 nM.

For the compound `N#CCC(CN1CCN(C(=O)c2ccc(F)cn2)CC1)n1ccc(-c2ncnc3[nH]ccc23)c1` (centres unmarked) [Example 83, 3-(3-(7H-pyrrolo[2,3-d]pyrimidin-4-yl)-1H-pyrrol-1-yl)-4-(4-(5-fluoropicolinoyl)piperazin-1-yl)butanenitrile], the IC50 on Jak2 (a.a. 828-1132) (Examples 12-91) was 10 to 50 nM; in assay [1] (Examples 12-91), under 10 nM.

In the case of `N#CCC(CN1CCN(C(=O)c2ncc(Cl)cc2F)CC1)n1ccc(-c2ncnc3[nH]ccc23)c1` (centres unmarked) [Example 84, 3-(3-(7H-pyrrolo[2,3-d]pyrimidin-4-yl)-1H-pyrrol-1-yl)-4-(4-(5-chloro-3-fluoropicolinoyl)piperazin-1-yl)butanenitrile], the IC50 (on Jak2 (a.a. 828-1132) (Examples 12-91); in assay [1] (Examples 12-91)) was 10 to 50 nM in each case.

On to `N#CCC(CN1CCN(C(=O)c2ccc(F)c(OC(F)(F)F)c2)CC1)n1ccc(-c2ncnc3[nH]ccc23)c1` (centres unmarked) [Example 85, 3-(3-(7H-pyrrolo[2,3-d]pyrimidin-4-yl)-1H-pyrrol-1-yl)-4-(4-(4-fluoro-3-(trifluoromethoxy)benzoyl)piperazin-1-yl)butanenitrile], for which the IC50 at Jak2 (a.a. 828-1132) (Examples 12-91) is over 100 nM; in assay [1] (Examples 12-91), 10 to 50 nM.

As for `N#CCC(CN1CCN(C(=O)c2cc(F)cc(C#N)c2)CC1)n1ccc(-c2ncnc3[nH]ccc23)c1` (centres unmarked) [Example 86, 3-(4-(2-(3-(7H-pyrrolo[2,3-d]pyrimidin-4-yl)-1H-pyrrol-1-yl)-3-cyanopropyl)piperazine-1-carbonyl)-5-fluorobenzonitrile trifluoroacetate salt], the values for the IC50 (on Jak2 (a.a. 828-1132) (Examples 12-91); in assay [1] (Examples 12-91)) were over 100 nM and 10 to 50 nM, respectively.

For `N#CCC(CN1CCN(C(=O)c2ncc(C#N)cc2F)CC1)n1ccc(-c2ncnc3[nH]ccc23)c1` (centres unmarked) [Example 87, 6-(4-(2-(3-(7H-pyrrolo[2,3-d]pyrimidin-4-yl)-1H-pyrrol-1-yl)-3-cyanopropyl)piperazine-1-carbonyl)-5-fluoronicotinonitrile], the figures for the IC50 (on Jak2 (a.a. 828-1132) (Examples 12-91); in assay [1] (Examples 12-91)) were over 100 nM and 10 to 50 nM, respectively.

As for `N#CCC(CN1CCN(C(=O)c2ccc(C#N)cc2)CC1)n1ccc(-c2ncnc3[nH]ccc23)c1` (centres unmarked) [Example 88, 4-(4-(2-(3-(7H-pyrrolo[2,3-d]pyrimidin-4-yl)-1H-pyrrol-1-yl)-3-cyanopropyl)piperazine-1-carbonyl)benzonitrile], the IC50 at Jak2 (a.a. 828-1132) (Examples 12-91) was over 100 nM; in assay [1] (Examples 12-91), 10 to 50 nM.

Consider `N#CCC(CN1CCN(C(=O)c2ncc(C(F)(F)F)cc2F)CC1)n1ccc(-c2ncnc3[nH]ccc23)c1` (centres unmarked) [Example 89, 3-(3-(7H-pyrrolo[2,3-d]pyrimidin-4-yl)-1H-pyrrol-1-yl)-4-(4-(3-fluoro-5-(trifluoromethyl)picolinoyl)piperazin-1-yl)butanenitrile], for which the values for the IC50 (at Jak2 (a.a. 828-1132) (Examples 12-91); in assay [1] (Examples 12-91)) were over 100 nM and 10 to 50 nM, respectively.

In the case of `N#CCC(CN1CCN(C(=O)c2ccc(F)cc2F)CC1)n1ccc(-c2ncnc3[nH]ccc23)c1` (centres unmarked) [Example 90, 3-(3-(7H-pyrrolo[2,3-d]pyrimidin-4-yl)-1H-pyrrol-1-yl)-4-(4-(2,4-difluorobenzoyl)piperazin-1-yl)butanenitrile], the IC50 (on Jak2 (a.a. 828-1132) (Examples 12-91); in assay [1] (Examples 12-91)) was under 10 nM each time.

As to `N#CCC(CN1CCN(C(=O)c2ccc(C(F)F)cc2F)CC1)n1ccc(-c2ncnc3[nH]ccc23)c1` (centres unmarked) [Example 91, 3-(3-(7H-pyrrolo[2,3-d]pyrimidin-4-yl)-1H-pyrrol-1-yl)-4-(4-(4-(difluoromethyl)-2-fluorobenzoyl)piperazin-1-yl)butanenitrile], the IC50 at Jak2 (a.a. 828-1132) (Examples 12-91) was 10 to 50 nM; in assay [1] (Examples 12-91), under 10 nM.

Consider `Cc1cc(S(=O)(=O)N2CCN(CC(C)n3cc(-c4ncnc5[nH]ccc45)cn3)CC2)c(C(F)(F)F)o1` (centres unmarked) [Example 92, 4-{1-[1-methyl-2-(4-{[5-methyl-2-(trifluoromethyl)-3-furyl]sulfonyl}piperazin-1-yl)ethyl]-1H-pyrazol-4-yl}-7H-pyrrolo[2,3-d]pyrimidine], for which the IC50 on Jak2 (a.a. 828-1132) (Examples 92-162) is over 100 nM; in assay [1] (Examples 92-162) it was 20 to 50 nM.

With `CC(CN1CCN(S(=O)(=O)c2ccc(Cl)s2)CC1)n1cc(-c2ncnc3[nH]ccc23)cn1` (centres unmarked) [Example 93, 4-[1-(2-{4-[(5-chloro-2-thienyl)sulfonyl]piperazin-1-yl}-1-methylethyl)-1H-pyrazol-4-yl]-7H-pyrrolo[2,3-d]pyrimidine], the results for the IC50 (at Jak2 (a.a. 828-1132) (Examples 92-162); in assay [1] (Examples 92-162)) were over 100 nM and 20 to 50 nM, respectively.

For `CC(CN1CCN(S(=O)(=O)c2ccccc2C#N)CC1)n1cc(-c2ncnc3[nH]ccc23)cn1` (centres unmarked) [Example 94, 2-[(4-{2-[4-(7H-pyrrolo[2,3-d]pyrimidin-4-yl)-1H-pyrazol-1-yl]propyl}piperazin-1-yl)sulfonyl]benzonitrile], the IC50 was over 100 nM on Jak2 (a.a. 828-1132) (Examples 92-162) and 20 to 50 nM in assay [1] (Examples 92-162).

With `CC(CN1CCN(C(=O)c2ccc(F)cc2F)CC1)n1cc(-c2ncnc3[nH]ccc23)cn1` (centres unmarked) [Example 95, 4-(1-{2-[4-(2,4-difluorobenzoyl)piperazin-1-yl]-1-methylethyl}-1H-pyrazol-4-yl)-7H-pyrrolo[2,3-d]pyrimidine bis(trifluoroacetate)], the IC50 at Jak2 (a.a. 828-1132) (Examples 92-162) is over 100 nM; in assay [1] (Examples 92-162), 20 to 50 nM.

On to `CC(CN1CCN(S(=O)(=O)c2cccc(F)c2)CC1)n1cc(-c2ncnc3[nH]ccc23)cn1` (centres unmarked) [Example 96, 4-[1-(2-{4-[(3-fluorophenyl)sulfonyl]piperazin-1-yl}-1-methylethyl)-1H-pyrazol-4-yl]-7H-pyrrolo[2,3-d]pyrimidine bis(trifluoroacetate)], for which the IC50 was over 100 nM on Jak2 (a.a. 828-1132) (Examples 92-162) and 20 to 50 nM in assay [1] (Examples 92-162).

Consider `N#CCC(CN1CCCN(C(=O)c2ccc(O)cc2F)CC1)n1cc(-c2ncnc3[nH]ccc23)cn1` (centres unmarked) [Example 97, 4-[4-(2-fluoro-4-hydroxybenzoyl)-1,4-diazepan-1-yl]-3-[4-(7H-pyrrolo[2,3-d]pyrimidin-4-yl)-1H-pyrazol-1-yl]butanenitrile bis(trifluoroacetate)], for which the IC50 was over 100 nM on Jak2 (a.a. 828-1132) (Examples 92-162) and 20 to 50 nM in assay [1] (Examples 92-162).
